# Results as given in patent US12077503B2, “Substituted cyclic amides and their use as herbicides” (FMC CORPORATION, priority 2015, dated 2024).
# Where two headings read alike, the source gives them in different places.
# How the values were obtained:
# Assay type in all cases: in vivo
# [1] = tested on: ducksalad (Heteranthera limosa); experiment: Test B flooded paddy test; conditions: Heteranthera limosa, 250 g ai/ha, Flood; 0 to 100 scale where 0 is no effect and 100 is complete control; read-out: Ducksalad plant response rating
# Outline: (§1)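 Plants at 2-leaf stage flooded to 3 cm above soil, with compounds applied directly to paddy water and that depth maintained. Plants kept in greenhouse 13–15 d. Visual rating versus controls on a 0 (no effect) to 100 (complete control) scale.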
# [2] = tested on: sedge, umbrella (small-flower umbrella sedge, Cyperus difformis); experiment: Test B flooded paddy test; conditions: Cyperus difformis, 250 g ai/ha, Flood; 0 to 100 scale where 0 is no effect and 100 is complete control; read-out: Sedge, Umbrella plant response rating
# Outline: as §1
# [3] = tested on: barnyardgrass (Echinochloa crus-galli); experiment: Test B flooded paddy test; conditions: Echinochloa crus-galli, 250 g ai/ha, Flood; 0 to 100 scale where 0 is no effect and 100 is complete control; read-out: Barnyardgrass plant response rating
# Outline: as §1
# rice (Oryra sativa) = experiment: Test B flooded paddy test; conditions: Oryza sativa, 250 g ai/ha, Flood; 0 to 100 scale where 0 is no effect and 100 is complete control; read-out: Rice plant response rating
# Outline: as §1
# [4] = tested on: ragweed (common ragweed, Ambrosia elatior); experiment: Test A postemergence; conditions: Ambrosia artemisiifolia, post-emergence, 240 h, postemergence; for pest or weed control at 125 g/ha: 125 g ai/ha; for pest or weed control at 500 g/ha: 500 g ai/ha, 0 to 100 scale, 0 is no effect, 100 is complete control
# Outline: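 Preemergence directed soil spray on seeded pots, or postemergence application to plants 2–10 cm, one- to two-leaf. Solvent mixture non-phytotoxic, with surfactant. Scored ~10 d later, visually, 0–100 vs untreated.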
# [5] = read-out: Ragweed plant response rating
# [6] = visual injury vs untreated controls after approx. 10 d, 0 = no effect, 100 = complete control, read-out: Ragweed plant response rating (0 to 100 scale)
SMILES,pest or weed control at 250 g/ha [1],pest or weed control at 250 g/ha [2],pest or weed control at 250 g/ha [3],pest or weed control at 250 g/ha (rice (Oryra sativa)),"pest or weed control at 125 g/ha ([4]; visual injury on 0 to 100 scale (0 no effect, 100 complete control), approx. 10 d, read-out: Ragweed plant response rating)","pest or weed control at 500 g/ha [4, 5]","pest or weed control at 125 g/ha [4, 6]"
CCc1cc(CC)cc([C@H]2CNC(=O)[C@@H]2C(=O)Nc2ccccc2F)c1 [Compound 1138],75%,0%,60%,0%,0%,0%,
CCc1ccc([C@H]2CNC(=O)[C@@H]2C(=O)Nc2cccc(F)c2C)cc1 [Compound 1177],95%,0%,70%,20%,,0%,0%
CCc1ccc([C@H]2CNC(=O)[C@@H]2C(=O)Nc2ccccc2SC)cc1 [Compound 1178],90%,0%,20%,20%,,20%,0%
CSc1ccccc1NC(=O)[C@H]1C(=O)N(C)C[C@@H]1c1ccc(C(F)(F)F)nc1 [Compound 1198],40%,30%,20%,0%,,30%,0%
CN1C[C@H](c2ccc(C#N)cc2)[C@@H](C(=O)Nc2ccccc2F)C1=O [Compound 1207],100%,0%,0%,0%,,30%,0%
CN1C[C@H](c2ccc(C#N)cc2)[C@@H](C(=O)Nc2cccc(F)c2F)C1=O [Compound 1208],95%,0%,45%,15%,,40%,0%
